The results in this text go back to patent publication US20260262643A1, “HERBICIDAL BENZOXAZINES” (FMC CORPORATION, priority 2022, published 2026).

For the assay, the system named is barnyardgrass. The assay is described as follows: Test A preemergence. The format is in vivo, Echinochloa crusgalli. The conditions noted are these: visual injury after 10 days, 0 to 100 scale, 0 is no effect, 100 is complete control. Put shortly: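 Seeds in loam–sand blend received a directed preemergence soil spray of compound in non-phytotoxic solvent with surfactant; postemergence plants (2–10 cm, one- to two-leaf stage) were sprayed with the same formulation. After 10 days in greenhouse, injury was rated visually versus untreated controls, 0 (no effect) to 100 (complete control).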

Take `C[C@H]1CN(C(=S)c2cccc(-n3cncn3)c2)c2cccc(Cl)c2O1` [Compound 139, [(2S)-8-Chloro-2,3-dihydro-2-methyl-4H-1,4-benzoxazin-4-yl][3-(1H-1,2,4-triazol-1-yl)phenyl]methanethione]: the “Plant response rating, Barnyardgrass” value came out at 70 (125 g ai/ha) and 90 (500 g ai/ha). With `CC(C)c1ncn(-c2cc(C(=O)N3C[C@H](C)Oc4c(Cl)cccc43)c3ccccc3c2)n1` [Compound 146], the “Plant response rating, Barnyardgrass” value (125 g ai/ha) was 20 and the “Plant response rating, Barnyardgrass” value (500 g ai/ha) amounted to 70.

In the case of `CC(C)c1ncn(-c2cc(C(=O)N3C[C@H](C)Oc4c(Cl)cccc43)c3ccccc3c2)n1` [Compound 145], the “Plant response rating, Barnyardgrass” value reads like this: (125 g ai/ha) 0; (500 g ai/ha) 40. As for `Cc1cccc2c1O[C@@H](C)CN2C(=O)c1cccc(-n2cnc(C3COC3)n2)c1` [Compound 109, [(2S)-2,3-Dihydro-2,8-dimethyl-4H-1,4-benzoxazin-4-yl][3-[3-(3-oxetanyl)-1H-1,2,4-triazol-1-yl]phenyl]methanone], the “Plant response rating, Barnyardgrass” value (125 g ai/ha) is given as 90. Take `CC(C)c1ncn(-c2cc3c(c(C(=O)N4C[C@H](C)Oc5c(Cl)cccc54)c2)OCC3)n1` [Compound 147]: the “Plant response rating, Barnyardgrass” value is, setting by setting: (125 g ai/ha) 40; (500 g ai/ha) 100.
